Series [1] can be described thus: pKa determination by automated spectrophotometric titration. Format: physicochemical. The following applies: 0.1 M KCl solution.
A short description of series [2]: iron (III) affinity constants and pFe3+ by spectrophotometric titration. Format: physicochemical. The following applies: for Log β1 / Log β2 / Log β3: DMSO: KCl (0.1 M) = 1:1.5 (v/v); for pFe^3+: calculated from Log β values obtained in DMSO: KCl (0.1 M) = 1:1.5 (v/v).
For the next series, the target named is T1, MAO-B (Homo sapiens, UniProt P27338).
T1 construct: purchased Sigma-Aldrich
T1 sequence (P27338 1-520): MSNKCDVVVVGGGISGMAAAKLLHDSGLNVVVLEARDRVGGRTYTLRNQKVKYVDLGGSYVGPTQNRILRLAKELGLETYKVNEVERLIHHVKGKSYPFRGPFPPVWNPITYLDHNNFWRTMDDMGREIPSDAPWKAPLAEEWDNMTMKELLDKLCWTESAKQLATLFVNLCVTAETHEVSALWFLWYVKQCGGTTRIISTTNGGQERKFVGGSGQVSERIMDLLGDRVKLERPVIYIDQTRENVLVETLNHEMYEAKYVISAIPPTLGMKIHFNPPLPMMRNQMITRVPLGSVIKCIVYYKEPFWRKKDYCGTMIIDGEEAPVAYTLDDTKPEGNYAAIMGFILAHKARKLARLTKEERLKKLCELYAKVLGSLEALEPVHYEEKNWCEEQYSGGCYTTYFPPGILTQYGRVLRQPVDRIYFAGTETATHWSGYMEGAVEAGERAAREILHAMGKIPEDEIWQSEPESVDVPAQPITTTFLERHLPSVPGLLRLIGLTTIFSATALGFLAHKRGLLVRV
As to the kind of experiment: hMAO-B inhibition assay. It counts as biochemical. The following applies: for inhibition at 0.1 µM: hMAO-B, 100 nM, read-out: Inhibitory rate (%, 100 nM). As to the method:
(§1) The reagents and enzymes (Human MAO-B and Human MAO-A) applied in this experiment were purchased from Sigma-Aldrich. According to the manuals, all components (substrate solution and enzyme solution) are diluted and placed aside for use. The detailed process has been mentioned in our early work[34].

The target of another series is T2, Human MAO-A (Homo sapiens, UniProt P21397).
T2 construct: purchased Sigma-Aldrich
T2 sequence (P21397 1-527): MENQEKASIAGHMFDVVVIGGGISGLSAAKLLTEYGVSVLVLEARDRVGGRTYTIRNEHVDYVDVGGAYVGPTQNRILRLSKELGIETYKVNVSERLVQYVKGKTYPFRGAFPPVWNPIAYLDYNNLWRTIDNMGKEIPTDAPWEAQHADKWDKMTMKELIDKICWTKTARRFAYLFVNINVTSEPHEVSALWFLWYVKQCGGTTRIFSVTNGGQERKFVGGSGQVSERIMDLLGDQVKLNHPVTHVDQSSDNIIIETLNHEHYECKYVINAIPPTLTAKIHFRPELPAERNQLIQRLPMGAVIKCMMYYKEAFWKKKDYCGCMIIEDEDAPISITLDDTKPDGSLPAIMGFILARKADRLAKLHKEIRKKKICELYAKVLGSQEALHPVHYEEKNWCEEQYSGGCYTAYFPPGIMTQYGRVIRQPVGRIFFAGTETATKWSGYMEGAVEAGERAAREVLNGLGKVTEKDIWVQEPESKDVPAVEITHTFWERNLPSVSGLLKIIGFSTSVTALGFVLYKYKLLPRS
The experiment in a line: hMAO-A inhibition assay. The following applies: for inhibition at 10 µM: read-out: hMAO-A inhibitory rate at 10 μM, 10 μM (highest concentration tested). It counts as biochemical. As to the method: Further, the inhibitory activity of compounds against hMAO-A isoform was tested and calculated as a selectivity index [Selectivity index (SI): IC50 (hMAO-A)/IC50 (hMAO-B)].
as §1

Data on ten compounds can be found in article PMC9762789, “Chromone-based monoamine oxidase B inhibitor with potential iron-chelating activity for the treatment of Alzheimer’s disease” (Journal of Enzyme Inhibition and Medicinal Chemistry, 2022).

Read-outs that look alike come from different tables or passages of the source.

On to `Cc1c(O)c(=O)ccn1CCNC(=O)c1coc2cc(OCc3ccc(F)cc3)ccc2c1=O` [Compound 15e, 7-((4-Fluorobenzyl)oxy)-N-(2–(3-hydroxy-2-methyl-4-oxopyridin-1(4H)-yl)ethyl)-4-oxo-4H-chromene-3-carboxamide], for which the melting point (in general, the temperature of the solid-liquid transition) lay within 246 to 248 °C. Further, the pKa in series [1] (read-out: pKa1) was found to be 2.89. The pKa in series [1] (read-out: pKa2) stood at 9.57. Besides, in series [2], the “Log β1” value was 13.24, the “Log β2” value was 24.65, the “Log β3” value stood at 34.50 and the “pFe^3+” value was 18.52. At MAO-B, 106.4 ± 0.2 nM corresponded to half-maximal inhibition (IC50), the “SI: hMAO-B selectivity index = IC50 (hMAO-A)/IC50 (hMAO-B)” value (from here on “SI: hMAO-B selectivity index = IC50”) is reported as greater than 94 and the inhibition at 0.1 µM was found to be 42.4 ± 2.1%. Moreover, the inhibition at 10 µM on Human MAO-A is less than 20%.
Compound `Cc1c(O)c(=O)ccn1CCNC(=O)c1coc2cc(OCc3cccc(Cl)c3)ccc2c1=O` [Compound 15f, 7-((3-Chlorobenzyl)oxy)-N-(2–(3-hydroxy-2-methyl-4-oxopyridin-1(4H)-yl)ethyl)-4-oxo-4H-chromene-3-carboxamide] had a melting point of 230 to 232 °C. In series [1] (read-out: pKa1), the pKa was determined as 3.35. For the same compound, the pKa in series [1] (read-out: pKa2) is 9.52. In series [2], the “Log β1” value turned out to be 13.79, the “Log β2” value came to 25.03, the “Log β3” value is on record as 33.91 and the “pFe^3+” value is reported as 18.09. In addition, on MAO-B, the IC50 (as a rule, the concentration at which inhibition is half-maximal) came out at 129.5 ± 0.8 nM and the inhibition at 0.1 µM was 41.2 ± 2.8%. Also, at Human MAO-A, the inhibition at 10 µM was less than 20%.
As for `Cc1ccc2c(=O)c(CNCCn3ccc(=O)c(O)c3C)coc2c1` [Compound 17b, 3-Hydroxy-2-methyl-1–(2-(((7-methyl-4-oxo-4H-chromen-3-yl)methyl)amino)ethyl)pyridin-4(1H)-one], the melting point was in the range of 251 to 253 °C. Further, the pKa in series [1] (read-out: pKa1) was determined as 2.95. The pKa in series [1] (read-out: pKa2) came out at 9.82. Moreover, in series [2], the “Log β1” value was found to be 13.58, the “Log β2” value came to 25.38, the “Log β3” value is 35.34 and the “pFe^3+” value is 18.61. At MAO-B, the IC50 worked out at 82.78 ± 0.7 nM, the “SI: hMAO-B selectivity index = IC50” value was greater than 120 and the inhibition at 0.1 µM was found to be 49.5 ± 0.3%. On Human MAO-A, the inhibition at 10 µM is less than 20%.
In the case of `Cc1ccc2occ(CNCCn3ccc(=O)c(O)c3C)c(=O)c2c1` [Compound 17c, 3-Hydroxy-2-methyl-1–(2-(((6-methyl-4-oxo-4H-chromen-3-yl)methyl)amino)ethyl)pyridin-4(1H)-one], the melting point is 259 to 261 °C. Moreover, the pKa in series [1] (read-out: pKa1) was found to be 2.75. Further, the pKa in series [1] (read-out: pKa2) was 9.76. In addition, in series [2], the “Log β1” value is recorded as 13.31, the “Log β2” value came out at 25.00, the “Log β3” value was 34.07 and the “pFe^3+” value is 17.55. Also, on MAO-B, the IC50 came to 86.3 ± 0.7 nM, the “SI: hMAO-B selectivity index = IC50” value is reported as greater than 116 and the inhibition at 0.1 µM came to 44.23 ± 0.1%. For the same compound, at Human MAO-A, the inhibition at 10 µM was less than 20%.
In the case of `COc1ccc2occ(CNCCn3ccc(=O)c(O)c3C)c(=O)c2c1` [Compound 17e, 3-Hydroxy-1–(2-(((6-methoxy-4-oxo-4H-chromen-3-yl)methyl)amino)ethyl)-2-methylpyridin-4(1H)-one], the melting point was 267 to 269 °C. For the same compound, the pKa in series [1] (read-out: pKa1) was found to be 2.76. Besides, in series [1] (read-out: pKa2), the pKa worked out at 9.83. Also, in series [2], the “Log β1” value worked out at 13.32, the “Log β2” value turned out to be 25.08, the “Log β3” value was found to be 34.89 and the “pFe^3+” value was 18.12. Further, on MAO-B, the IC50 amounted to 88.7 ± 5.3 nM, the “SI: hMAO-B selectivity index = IC50” value is greater than 112 and the inhibition at 0.1 µM came to 46.4 ± 1.3%. Also, the inhibition at 10 µM on Human MAO-A was less than 20%.
`Cc1c(O)c(=O)ccn1CCNCc1coc2cc(OCc3ccccc3)ccc2c1=O` [Compound 17f, 1–(2-(((7-(Benzyloxy)-4-oxo-4H-chromen-3-yl)methyl)amino)ethyl)-3-hydroxy-2-methylpyridin-4(1H)-one] had a melting point of 169 to 171 °C. Moreover, the pKa in series [1] (read-out: pKa1) came out at 2.73. In addition, the pKa in series [1] (read-out: pKa2) is 9.69. In series [2], the “Log β1” value came out at 13.20, the “Log β2” value amounted to 24.70, the “Log β3” value stood at 33.77 and the “pFe^3+” value is 17.45. In addition, at MAO-B, the IC50 stood at 76.4 ± 3.8 nM, the “SI: hMAO-B selectivity index = IC50” value stood at 10.4 and the inhibition at 0.1 µM was 49 ± 0.6%. For the same compound, at Human MAO-A, the midpoint of inhibition, the IC50, lay at 795 ± 0.7 nM.
On to `Cc1cccc(COc2ccc3c(=O)c(CNCCn4ccc(=O)c(O)c4C)coc3c2)c1` [Compound 17g, 3-Hydroxy-2-methyl-1–(2-(((7-((3-methylbenzyl)oxy)-4-oxo-4H-chromen-3-yl)methyl)amino)ethyl)pyridin-4(1H)-one], for which the melting point lay in the range of 211 to 213 °C. For the same compound, in series [1] (read-out: pKa1), the pKa was 2.68. Moreover, in series [1] (read-out: pKa2), the pKa was determined as 9.62. In addition, in series [2], the “Log β1” value is recorded as 13.02, the “Log β2” value turned out to be 24.75, the “Log β3” value is 33.78 and the “pFe^3+” value is 17.66. Moreover, at MAO-B, the IC50 was determined as 78 ± 4.3 nM, the “SI: hMAO-B selectivity index = IC50” value is 21.4 and the inhibition at 0.1 µM turned out to be 55.8 ± 2.7%. It took 1666 ± 5.7 nM to reach half-maximal inhibition at Human MAO-A (IC50).
On to `Cc1c(O)c(=O)ccn1CCNCc1coc2cc(OCc3ccc(F)cc3)ccc2c1=O` [Compound 17j, 1–(2-(((7-((4-Fluorobenzyl)oxy)-4-oxo-4H-chromen-3-yl)methyl)amino)ethyl)-3-hydroxy-2-methylpyridin-4(1H)-one], for which the melting point was in the range of 218 to 220 °C. In addition, the pKa in series [1] (read-out: pKa1) was found to be 2.76. Besides, the pKa in series [1] (read-out: pKa2) is 9.53. In addition, in series [2], the “Log β1” value is 13.13, the “Log β2” value stood at 24.78, the “Log β3” value came out at 33.73 and the “pFe^3+” value is 17.89. On MAO-B, the IC50 is 102 ± 3.2 nM, the “SI: hMAO-B selectivity index = IC50” value is listed as greater than 99 and the inhibition at 0.1 µM is 46 ± 0.7%. In addition, at Human MAO-A, the inhibition at 10 µM was less than 20%.
Consider `Cc1c(O)c(=O)ccn1CCNCc1coc2cc(OCc3cccc(Cl)c3)ccc2c1=O` [Compound 17k, 1–(2-(((7-((3-Chlorobenzyl)oxy)-4-oxo-4H-chromen-3-yl)methyl)amino)ethyl)-3-hydroxy-2-methylpyridin-4(1H)-one], for which the melting point is 226 to 228 °C. For the same compound, in series [1] (read-out: pKa1), the pKa came to 2.53. Moreover, the pKa in series [1] (read-out: pKa2) stood at 9.43. Also, in series [2], the “Log β1” value is given as 12.99, the “Log β2” value worked out at 24.76, the “Log β3” value was determined as 33.88 and the “pFe^3+” value is recorded as 18.31. Moreover, on MAO-B, the IC50 was determined as 114 ± 3.8 nM, the “SI: hMAO-B selectivity index = IC50” value is recorded as greater than 88 and the inhibition at 0.1 µM is 43.1 ± 2%. In addition, the inhibition at 10 µM on Human MAO-A is less than 20%.
In the case of `Cc1c(O)c(=O)ccn1CCNCc1coc2cc(OCc3ccc(Cl)cc3)ccc2c1=O` [Compound 17l, 1–(2-(((7-((4-Chlorobenzyl)oxy)-4-oxo-4H-chromen-3-yl)methyl)amino)ethyl)-3-hydroxy-2-methylpyridin-4(1H)-one], the melting point was 189 to 191 °C. Further, the pKa in series [1] (read-out: pKa1) turned out to be 2.61. In addition, in series [1] (read-out: pKa2), the pKa turned out to be 9.47. In addition, in series [2], the “Log β1” value worked out at 13.02, the “Log β2” value is 24.99, the “Log β3” value amounted to 34.39 and the “pFe^3+” value was 18.70. At MAO-B, inhibition was half-maximal at 75.6 ± 3.1 nM (IC50), the “SI: hMAO-B selectivity index = IC50” value is given as 17.4 and the inhibition at 0.1 µM came out at 61.4 ± 3.4%. On Human MAO-A, the IC50 amounted to 1310 ± 13.4 nM.
